Molecular target: T1, human LPA1 (Homo sapiens, UniProt Q92633)
T1 construct: the full-length cDNA for human LPA1 was obtained by PCR of the reverse transcription reaction; expressed in transfected cells
Assay: LPA1 calcium flux assay (HLPA1 Ca Flux)
Format: cell-based
Conditions: Human LPA1 expressing CHO cells, stimulated with 10 nM LPA
Method: A 1.1 kb cDNA encoding the human LPA1 receptor was cloned from human lung. Human lung RNA (Clontech Laboratories, Inc. USA) was reverse transcribed using the RETROscript kit (Ambion, Inc.) and the full-length cDNA for human LPA1 was obtained by PCR of the reverse transcription reaction. The nucleotide sequence of the cloned human LPA1 was determined by sequencing and confirmed to be identical to the published human LPA1 sequence (An et al. Biochem. Biophys. Res. Commun. 231:619 (1997). The cDNA was cloned into the pcDNAS/FRT expression plasmid and transfected in CHO cells using lipofectamine 2000 (Invitrogen Corp., USA). Clones stably expressing human LPA1 were selected using hygromycin and identified as cells that show Ca-influx in response to LPA.
Human LPA1 or LPA3 expressing CHO cells are seeded at 20,000-45,000 cells per well in a 96-well poly-D-lysine coated plate one or two days before the assay. Prior to the assay, the cells are washed once with PBS and then cultured in serum-free media overnight. On the day of the assay, a calcium indicator dye (Calcium 4, Molecular Devices) in assay buffer (HBSS with Ca^2+ and Mg^2+ and containing 20 mM Hepes and 0.3% fatty-acid free human serum albumin) is added to each well and incubation continued for 1 hour at 37° C. 10 μl of test compounds in 2.5% DMSO are added to the cells and incubation continued at room temperature for 30 minutes. Cells are the stimulated by the addition of 10 nM LPA and intracellular Ca^2+ measured using the Flexstation 3 (Molecular Devices). IC50s are determined using Graphpad prism analysis of drug titration curves.

T1 sequence (Q92633 whole entry): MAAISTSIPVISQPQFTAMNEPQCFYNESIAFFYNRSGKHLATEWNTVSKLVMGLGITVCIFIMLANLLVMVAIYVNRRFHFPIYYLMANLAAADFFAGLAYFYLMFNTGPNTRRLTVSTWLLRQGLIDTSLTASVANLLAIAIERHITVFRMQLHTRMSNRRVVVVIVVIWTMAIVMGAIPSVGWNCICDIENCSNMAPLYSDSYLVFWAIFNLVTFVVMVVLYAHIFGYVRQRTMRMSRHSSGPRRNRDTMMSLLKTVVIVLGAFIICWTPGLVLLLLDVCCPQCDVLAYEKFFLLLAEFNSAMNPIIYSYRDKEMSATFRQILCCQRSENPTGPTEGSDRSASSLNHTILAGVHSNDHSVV

Row | Compound | IC50 [nM]
1 | Cc1noc(-c2ccc(Cc3cccc(C(=O)O)c3)cc2)c1NC(=O)OCc1ccccc1Br [Compound 1-6, 3-{4-[4-(2-Bromo-benzyloxycarbonylamino)-3-methyl-isoxazol-5-yl]-benzyl}-benzoic acid] | 1000 to 50000
2 | Cc1cccc(COC(=O)Nc2c(C)noc2-c2ccc(-c3cccc(C(=O)O)c3)cc2)n1 [Compound 1-13, 4′-[3-Methyl-4-(6-methyl-pyridin-2-ylmethoxycarbonylamino)-isoxazol-5-yl]-biphenyl-3-carboxylic acid] | 1000 to 50000
3 | Cc1noc(-c2ccc(-c3cccc(C(=O)O)c3)cc2)c1NC(=O)OC1CCc2ccccc21 (centres unmarked) [Compound 1-16, 4′-[4-(Indan-1-yloxycarbonylamino)-3-methyl-isoxazol-5-yl]-biphenyl-3-carboxylic acid] | > 50000
4 | Cc1noc(-c2ccc(CSc3cccc(CC(=O)O)c3)cc2)c1NC(=O)OC(C)c1ccccc1Cl (centres unmarked) [Compound 1-18, [3-(4-{4-[1-(2-Chloro-phenyl)-ethoxycarbonylamino]-3-methyl-isoxazol-5-yl}-benzylsulfanyl)-phenyl]-acetic acid] | < 300
5 | Cc1noc(-c2ccc(Cc3ccccc3CC(=O)O)cc2)c1NC(=O)OC(C)c1ccccc1Cl (centres unmarked) [Compound 1-22, [2-(4-{4-[1-(2-Chloro-phenyl)-ethoxycarbonylamino]-3-methyl-isoxazol-5-yl}-benzyl)-phenyl]-acetic acid] | < 300
6 | Cc1noc(-c2ccc(-c3ccc(CC(=O)O)cc3)cc2)c1NC(=O)OC(C)Cc1ccccc1 (centres unmarked) [Compound 1-29, {4′-[3-Methyl-4-(1-methyl-2-phenyl-ethoxycarbonylamino)-isoxazol-5-yl]-biphenyl-4-yl}-acetic acid] | 300 to 1000
7 | COc1ncc(CC(=O)O)cc1-c1cccc(-c2onc(C)c2NC(=O)OC(C)c2ccccc2Cl)c1 (centres unmarked) [Compound 1-38, [5-(3-{4-[1-(2-Chloro-phenyl)-ethoxycarbonylamino]-3-methyl-isoxazol-5-yl}-phenyl)-6-methoxy-pyridin-3-yl]acetic acid] | 1000 to 50000
8 | Cc1noc(-c2cccc(-c3ccc4c(ccn4CC(=O)O)c3)c2)c1NC(=O)OC(C)c1ccccc1Cl (centres unmarked) [Compound 1-40, [5-(3-{4-[1-(2-Chloro-phenyl)-ethoxycarbonylamino]-3-methyl-isoxazol-5-yl}-phenyl)-indol-1-yl]-acetic acid] | > 50000
9 | Cc1noc(-c2cccc(-c3cc(CC(=O)O)ccc3F)c2)c1NC(=O)OC(C)c1ccccc1Cl (centres unmarked) [Compound 1-42, (3′-{4-[1-(2-Chloro-phenyl)-ethoxycarbonylamino]-3-methyl-isoxazol-5-yl}-6-fluoro-biphenyl-3-yl)-acetic acid] | 1000 to 50000
10 | Cc1noc(-c2cccc(-c3ccc(F)c(CC(=O)O)c3)c2)c1NC(=O)OC(C)c1ccccc1Cl (centres unmarked) [Compound 1-43, (3′-{4-[1-(2-Chloro-phenyl)-ethoxycarbonylamino]-3-methyl-isoxazol-5-yl}-4-fluoro-biphenyl-3-yl)-acetic acid] | 1000 to 50000
11 | Cc1noc(-c2cccc(-c3ccccc3CC(=O)O)c2)c1NC(=O)OC(C)c1ccccc1Cl (centres unmarked) [Compound 1-44, (3′-{4-[1-(2-Chloro-phenyl)-ethoxycarbonylamino]-3-methyl-isoxazol-5-yl}-biphenyl-2-yl)-acetic acid] | 1000 to 50000
12 | Cc1noc(-c2cccc(C3CCC(C(=O)O)CC3)c2)c1NC(=O)OC(C)c1ccccc1Cl (centres unmarked) [Compound 1-46, 4-(3-{4-[1-(2-Chloro-phenyl)-ethoxycarbonylamino]-3-methyl-isoxazol-5-yl}-phenyl)-cyclohexanecarboxylic acid] | < 300
13 | CCOC(=O)Cc1ccc(-c2ccc(-c3onc(C)c3NC(=O)OC(C)c3ccccc3F)cn2)cc1 (centres unmarked) [Compound 1-47] | 300 to 1000
14 | CCOC(=O)C(C)c1ccc(-c2ccc(-c3onc(C)c3NC(=O)OC(C)c3ccccc3Cl)cc2)cc1 (centres unmarked) [Compound 1-70, 2-(4′-{4-[1-(2-Chloro-phenyl)-ethoxycarbonylamino]-3-methyl-isoxazol-5-yl}-biphenyl-4-yl)-propionic acid ethyl ester] | < 300

The next lines start with the values.

Row | IC50 [nM] | Compound
15 | 1000 to 50000 | Cc1noc(-c2ccc(-c3cccc(C(=O)O)c3)cc2)c1NC(=O)O[C@H](C)c1ccccn1 [Compound 1-11]
16 | 300 to 1000 | Cc1noc(-c2ccc(Cc3cc(C(=O)O)ccc3Cl)cc2)c1NC(=O)OC(C)c1ccccc1Cl (centres unmarked) [Compound 1-14, 4-Chloro-3-(4-{4-[1-(2-chloro-phenyl)-ethoxycarbonylamino]-3-methyl-isoxazol-5-yl}-benzyl)-benzoic acid]
17 | 300 to 1000 | Cc1noc(-c2cccc(-c3ccccc3C(=O)O)c2)c1NC(=O)OC(C)c1ccccc1Cl (centres unmarked) [Compound 1-32, 3′-{4-[1-(2-Chloro-phenyl)-ethoxycarbonylamino]-3-methyl-isoxazol-5-yl}-biphenyl-2-carboxylic acid]
18 | 300 to 1000 | Cc1noc(-c2cccc(-c3ccc(C(=O)O)nc3)c2)c1NC(=O)OC(C)c1ccccc1Cl (centres unmarked) [Compound 1-34, 5-(3-{4-[1-(2-Chloro-phenyl)-ethoxycarbonylamino]-3-methyl-isoxazol-5-yl}-phenyl)-pyridine-2-carboxylic acid]
19 | 300 to 1000 | Cc1noc(-c2cccc(-c3cc(C(=O)O)ccn3)c2)c1NC(=O)OC(C)c1ccccc1Cl (centres unmarked) [Compound 1-35, 2-(3-{4-[1-(2-Chloro-phenyl)-ethoxycarbonylamino]-3-methyl-isoxazol-5-yl}-phenyl)-isonicotinic acid]
20 | 300 to 1000 | Cc1noc(-c2cccc(-c3cccc(C(=O)O)n3)c2)c1NC(=O)OC(C)c1ccccc1Cl (centres unmarked) [Compound 1-36, 6-(3-{4-[1-(2-Chloro-phenyl)-ethoxycarbonylamino]-3-methyl-isoxazol-5-yl}-phenyl)-pyridine-2-carboxylic acid]
21 | 1000 to 50000 | Cc1noc(-c2cccc(-c3cncc(C(=O)O)c3)c2)c1NC(=O)OC(C)c1ccccc1Cl (centres unmarked) [Compound 1-37, 5-(3-{4-[1-(2-Chloro-phenyl)-ethoxycarbonylamino]-3-methyl-isoxazol-5-yl}-phenyl)-nicotinic acid]
22 | 1000 to 50000 | Cc1noc(-c2cccc(-c3ccc(CC(=O)O)cc3)c2)c1NC(=O)OC(C)c1ccccc1Cl (centres unmarked) [Compound 1-39, (3′-{4-[1-(2-Chloro-phenyl)-ethoxycarbonylamino]-3-methyl-isoxazol-5-yl}-biphenyl-4-yl)-acetic acid]
23 | 1000 to 50000 | Cc1noc(-c2cccc(-c3cncc(CC(=O)O)c3)c2)c1NC(=O)OC(C)c1ccccc1Cl (centres unmarked) [Compound 1-41, [5-(3-{4-[1-(2-Chloro-phenyl)-ethoxycarbonylamino]-3-methyl-isoxazol-5-yl}-phenyl)-pyridin-3-yl]acetic acid]
24 | 1000 to 50000 | Cc1noc(-c2ccc(-c3ccccc3C(=O)O)cc2)c1NC(=O)OC(C)c1ccccc1Cl (centres unmarked) [Compound 1-52, 4′-{4-[1-(2-Chloro-phenyl)-ethoxycarbonylamino]-3-methyl-isoxazol-5-yl}-biphenyl-2-carboxylic acid]
25 | < 300 | Cc1noc(-c2ccc(-c3cncc(C(=O)O)c3)cc2)c1NC(=O)OC(C)c1ccccc1Cl (centres unmarked) [Compound 1-55, 5-(4-{4-[1-(2-Chloro-phenyl)-ethoxycarbonylamino]-3-methyl-isoxazol-5-yl}-phenyl)-nicotinic acid]
26 | < 300 | Cc1noc(-c2ccc(-c3ccc(C(C)(C)C(=O)O)cc3)cc2)c1NC(=O)OC(C)c1ccccc1Cl (centres unmarked) [Compound 1-72, 2-(4′-{4-[1-(2-Chloro-phenyl)-ethoxycarbonylamino]-3-methyl-isoxazol-5-yl}-biphenyl-4-yl)-2-methyl-propionic acid]
